Measured values taken from patent US7728015B2, “Compositions for weight management” (Mor Research Applications Ltd., priority 2004, dated 2010).
Read-outs that look alike come from different tables or passages of the source.

What was measured:
[1] = pygmy goats, high doses intraperitoneally; cited from earlier work
[2] = in vivo, cited from earlier work
[3] = cited from earlier work
[4] = Randomized placebo controlled double-blinded study of oral betahistine on food intake, caloric intake and weight in obese persons; assay type: in vivo, human
Description: Weight, caloric intake (24 hour recall) and appetite during the day (VAS, Visual Analogue Score) were obtained on day 0, 14 and 28 of the study. Subjects were instructed to eat according to their appetite without limitations. Statistical significance was assessed with t-test. BMI stands for body mass index.

[5] = biological target: H3-receptor (Homo sapiens, UniProt Q9Y5N1); conditions: receptor binding studies; cited from earlier work
H3-receptor, sequence (Q9Y5N1 whole entry): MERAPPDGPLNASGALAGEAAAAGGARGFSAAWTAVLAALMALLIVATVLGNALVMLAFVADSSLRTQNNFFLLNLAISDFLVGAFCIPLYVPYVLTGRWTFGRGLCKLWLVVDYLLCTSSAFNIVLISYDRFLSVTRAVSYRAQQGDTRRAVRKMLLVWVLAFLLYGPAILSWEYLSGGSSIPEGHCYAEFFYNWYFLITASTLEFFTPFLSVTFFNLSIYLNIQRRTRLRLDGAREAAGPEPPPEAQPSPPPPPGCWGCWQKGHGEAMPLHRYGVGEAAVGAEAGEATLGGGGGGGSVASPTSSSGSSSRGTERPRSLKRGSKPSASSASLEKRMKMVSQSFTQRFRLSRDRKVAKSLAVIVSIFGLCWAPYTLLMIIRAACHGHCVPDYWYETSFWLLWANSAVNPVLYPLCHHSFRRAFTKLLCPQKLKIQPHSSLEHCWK

[6] = rats, cited from earlier work
[7] = Blood metabolite levels of a healthy overweight person before and after one month of betahistine; assay type: in vivo, human; set-up: Total cholesterol / HDL-cholesterol / LDL-cholesterol / Triglycerides: unit not given here
[8] = rats, cited from earlier work; remark: listed apart in the source
[9] = betahistine 16 mg orally twice a day, FIG. 5
[10] = Day 30, betahistine 16 mg twice daily, blood test

CNCCc1ccccn1 [betahistine, 2-[2-(methylamino)ethyl]pyridine]
food intake [1]: decreased food intake | water intake [1]: increased water intake | half-life [2]: about 3.5 hours | half-life ([2]; listed as Betahistine): 3.5 h | weight gain from week 2 to the end of the study ([3]; betahistine and olanzapine for 6 weeks, three patients): no weight gain was observed | mean weight gain compared with olanzapine/placebo-treated patients ([3]; betahistine/olanzapine-treated patients, 6 weeks): lower | adverse event reported by a subject ([4]; Subject No. 5, day 5, betahistine 16 mg twice a day): food aversion that did not allow them to consume any food | reduction in carbohydrate consumption [4, 9]: 6% | reduction in fat consumption [4, 9]: 49% | reduction in protein consumption [4, 9]: 35% | total caloric intake ([4]; betahistine 16 mg orally twice a day, day 14 of treatment): 80 percents of the pre-treatment level | total caloric intake ([4]; betahistine 16 mg orally twice a day, day 28 of treatment): 68 percents of the pre-treatment level | subjects who lost more than 1 kg during the study period ([4]; treatment group, 28 day study, no food restriction): Four out of seven | H3-receptor activity [5]: potent H3-receptor antagonist | food intake ([6]; given intragastrically): this effect was not seen | food intake ([6]; given intraperitoneally): decreased food intake | Fructoseamine [7, 10]: 202 | HDL-cholesterol [7, 10]: 58 | LDL-cholesterol [7, 10]: 84 | Total cholesterol [7, 10]: 155 | Triglycerides [7, 10]: 62 | Fructoseamine Change ([7]; Day 30 vs Day 0): +4% | HDL-cholesterol Change ([7]; Day 30 vs Day 0): +7% | LDL-cholesterol Change ([7]; Day 30 vs Day 0): −15% | Total cholesterol Change ([7]; Day 30 vs Day 0): −7% | Triglycerides Change ([7]; Day 30 vs Day 0): −10%

Cc1nc(N)nc(N)c1-c1ccc(Cl)c(Cl)c1 [metoprine]
half-life [2]: 216 h | intakes of carbohydrates or protein ([8]; FIG. 2): no marked effect | daily energy intake and ingestion of fat ([8]; intraperitoneal injection): suppressed daily energy intake and ingestion of fat
